Source: ChEMBL document CHEMBL3813644, “Utilization of Structure-Based Design to Identify Novel, Irreversible Inhibitors of EGFR Harboring the T790M Mutation” (ACS Med Chem Lett, 2016)
Values after ≈ are worked out from the molar mass of the structure shown. Active and inactive are the calls of the source. The calls are words filed in the database; no cut-off is given here.

How the values were obtained:
[1] = molecular target: T1, Epidermal growth factor receptor (Homo sapiens, UniProt P00533, L858R/T790M); assay: Inhibition of EGFR T790M/L858R double mutant autophosphorylation in human NCI-H1975 cells incubated for 2 hrs by ELISA; assay type: cell-based
[2] = molecular target: T1, Epidermal growth factor receptor; assay: Inhibition of recombinant N-terminal GST-tagged human EGFR T790M/L858R double mutant using biotinylated TK substrate incubated for 50 mins by HTRF assay; assay type: protein assay
[3] = molecular target: Epidermal growth factor receptor (Homo sapiens, UniProt P00533, EX19DEL); assay: Inhibition of EGFR exon19 deletion activating mutant autophosphorylation in human PC9 cells incubated for 2 hrs by ELISA; assay type: cell-based, PC-9
[4] = molecular target: T2, Epidermal growth factor receptor (Homo sapiens, UniProt P00533); assay: Inhibition of wild-type EGFR autophosphorylation in human LoVo cells incubated for 2 hrs followed by EGF-stiumlation for 10 mins by ELISA; assay type: cell-based
[5] = Solubility of compound at pH 7.4; assay type: physicochemical; details: buffer
[6] = Intrinsic clearance in human liver microsomes; assay type: ADME; details: read-out: CLH
Homo sapiens = species on record: Homo sapiens; assay: Selectivity ratio of IC50 for wild-type EGFR (unknown origin) to IC50 for recombinant N-terminal GST-tagged human EGFR T790M/L858R double mutant
[7] = tested on: Epidermal growth factor receptor (Homo sapiens), P00533 [T790M]; assay: Reversible inhibition of EGFR T790M mutant (unknown origin)
A-431 = assay: Antitumor activity against human A431 cells harboring wild-type EGFR xenografted in mouse at 50 mg/kg/day, po qd for 7 days; assay type: functional; details: A-431, po, 168 h, read-out: TGI
NCI-H1975 [8] = assay: Antiproliferative activity against human NCI-H1975 cells assessed as growth inhibition incubated for 72 hrs by SYTOX green nucleic acid stain-based fluorescence analysis; assay type: functional; details: NCI-H1975, 72 h
[9] = Selectivity ratio of GI50 for human Calu6 cells to GI50 for human NCI-H1975 cells; assay type: ADME, cell-based; details: Calu6 cells and NCI-H1975 cells, read-out: RatioGI50
NCI-H1975 [10] = assay: Antitumor activity against human NCI-H1975 cells harboring EGFR T790M/L858R double mutant xenografted in mouse at 50 mg/kg/day, po qd for 7 days; assay type: functional; details: 168 h, read-out: TGI
[11] = tested on: Epidermal growth factor receptor (Homo sapiens), P00533 [L858R,T790M]; assay: Inhibition of human EGFR T790M/L858R double mutant at 1 uM; assay type: protein assay
[12] = Antiproliferative activity against human PC9 cells assessed as growth inhibition incubated for 72 hrs by SYTOX green nucleic acid stain-based fluorescence analysis; assay type: functional; details: PC-9, 72 h
Mus musculus = assay: T>EC50 in female nude mouse assessed as time duration during which plasma concentration covers cellular EC50 for EGFR T790M/L858R double mutant autophosphorylation in human NCI-H1975 cells at 50 mg/kg, po; assay type: ADME, organism-based; details: in vivo
[13] = Antiproliferative activity against human Calu6 cells incubated for 72 hrs by SYTOX green nucleic acid stain-based fluorescence analysis; assay type: cell-based, Calu-6
[14] = Antitumor activity against human PC9 cells harboring EGFR exon19 deletion activating mutant xenografted in mouse at 50 mg/kg/day, po qd for 7 days; assay type: functional; details: PC-9, po, 168 h, read-out: TGI
[15] = molecular target: T3, Tyrosine-protein kinase JAK3 (Homo sapiens) (UniProt P52333); assay: Inhibition of human JAK3 at 1 uM
T3 sequence (whole entry): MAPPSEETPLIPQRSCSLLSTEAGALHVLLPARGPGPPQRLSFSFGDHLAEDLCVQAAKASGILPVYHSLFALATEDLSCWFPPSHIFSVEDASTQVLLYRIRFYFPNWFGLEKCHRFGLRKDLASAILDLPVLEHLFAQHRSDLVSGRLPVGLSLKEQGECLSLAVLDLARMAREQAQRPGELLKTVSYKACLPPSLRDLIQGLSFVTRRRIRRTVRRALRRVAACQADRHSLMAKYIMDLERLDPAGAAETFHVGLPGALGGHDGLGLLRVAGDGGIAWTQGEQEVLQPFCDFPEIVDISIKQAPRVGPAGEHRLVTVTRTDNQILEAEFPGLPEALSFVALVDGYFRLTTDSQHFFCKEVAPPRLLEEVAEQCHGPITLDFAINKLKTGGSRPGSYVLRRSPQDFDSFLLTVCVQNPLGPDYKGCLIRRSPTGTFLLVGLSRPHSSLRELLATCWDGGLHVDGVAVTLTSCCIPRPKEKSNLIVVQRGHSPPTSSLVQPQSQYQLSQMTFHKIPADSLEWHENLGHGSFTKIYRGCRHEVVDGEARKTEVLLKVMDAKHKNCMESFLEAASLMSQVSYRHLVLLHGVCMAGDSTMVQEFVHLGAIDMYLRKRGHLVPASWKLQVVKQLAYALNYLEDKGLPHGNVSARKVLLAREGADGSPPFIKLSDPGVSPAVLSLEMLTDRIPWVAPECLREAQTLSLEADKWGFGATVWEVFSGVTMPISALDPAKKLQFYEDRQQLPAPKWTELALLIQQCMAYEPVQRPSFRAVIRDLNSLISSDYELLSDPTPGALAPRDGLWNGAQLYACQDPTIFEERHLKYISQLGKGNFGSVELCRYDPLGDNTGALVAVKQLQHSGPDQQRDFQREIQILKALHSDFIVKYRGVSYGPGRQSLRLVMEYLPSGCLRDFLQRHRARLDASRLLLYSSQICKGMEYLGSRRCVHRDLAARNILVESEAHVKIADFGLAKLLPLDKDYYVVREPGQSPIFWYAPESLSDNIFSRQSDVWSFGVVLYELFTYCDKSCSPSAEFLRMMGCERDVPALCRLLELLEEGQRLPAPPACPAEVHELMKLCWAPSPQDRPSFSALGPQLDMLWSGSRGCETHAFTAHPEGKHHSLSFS

[16] = molecular target: T2, Epidermal growth factor receptor; assay: Inhibition of wild-type human EGFR at 1 uM
[17] = Chemical stability of compound; assay type: physicochemical

Epidermal growth factor receptor (Homo sapiens, UniProt P00533, EX19DEL), sequence (P00533 whole entry, looked up, stated change not applied): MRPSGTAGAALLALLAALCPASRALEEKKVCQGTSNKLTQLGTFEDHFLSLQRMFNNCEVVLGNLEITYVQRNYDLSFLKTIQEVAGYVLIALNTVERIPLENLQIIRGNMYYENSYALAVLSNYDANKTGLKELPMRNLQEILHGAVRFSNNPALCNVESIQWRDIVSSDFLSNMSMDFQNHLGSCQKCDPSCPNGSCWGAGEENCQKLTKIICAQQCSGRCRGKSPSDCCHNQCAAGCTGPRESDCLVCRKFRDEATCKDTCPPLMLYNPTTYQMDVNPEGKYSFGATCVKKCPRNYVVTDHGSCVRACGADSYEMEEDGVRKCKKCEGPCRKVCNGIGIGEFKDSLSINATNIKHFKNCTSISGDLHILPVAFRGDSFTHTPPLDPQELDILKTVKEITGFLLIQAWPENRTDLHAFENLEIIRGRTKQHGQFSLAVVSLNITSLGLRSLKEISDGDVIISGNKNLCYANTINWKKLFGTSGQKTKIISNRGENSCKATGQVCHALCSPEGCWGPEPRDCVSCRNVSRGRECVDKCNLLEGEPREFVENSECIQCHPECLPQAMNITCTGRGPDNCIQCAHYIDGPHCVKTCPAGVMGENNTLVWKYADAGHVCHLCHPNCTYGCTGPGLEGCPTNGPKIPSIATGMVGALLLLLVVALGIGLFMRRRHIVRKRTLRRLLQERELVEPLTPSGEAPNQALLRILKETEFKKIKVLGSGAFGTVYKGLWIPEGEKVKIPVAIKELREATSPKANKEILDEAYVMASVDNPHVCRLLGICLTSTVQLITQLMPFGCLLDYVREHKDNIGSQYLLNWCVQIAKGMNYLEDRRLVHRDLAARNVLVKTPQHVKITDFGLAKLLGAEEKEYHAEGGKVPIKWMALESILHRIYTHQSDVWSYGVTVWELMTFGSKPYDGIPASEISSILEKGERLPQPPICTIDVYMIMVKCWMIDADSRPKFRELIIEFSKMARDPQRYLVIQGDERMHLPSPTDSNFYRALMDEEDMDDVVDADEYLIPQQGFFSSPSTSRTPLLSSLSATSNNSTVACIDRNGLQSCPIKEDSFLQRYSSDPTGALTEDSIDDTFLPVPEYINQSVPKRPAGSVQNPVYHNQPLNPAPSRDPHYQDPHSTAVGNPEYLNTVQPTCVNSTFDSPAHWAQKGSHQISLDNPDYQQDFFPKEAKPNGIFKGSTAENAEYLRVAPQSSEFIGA
T2 sequence (P00533 whole entry): as the sequence (P00533 whole entry, looked up, stated change not applied) above
T1 sequence (P00533 25-1210 T790M/L858R limits assumed): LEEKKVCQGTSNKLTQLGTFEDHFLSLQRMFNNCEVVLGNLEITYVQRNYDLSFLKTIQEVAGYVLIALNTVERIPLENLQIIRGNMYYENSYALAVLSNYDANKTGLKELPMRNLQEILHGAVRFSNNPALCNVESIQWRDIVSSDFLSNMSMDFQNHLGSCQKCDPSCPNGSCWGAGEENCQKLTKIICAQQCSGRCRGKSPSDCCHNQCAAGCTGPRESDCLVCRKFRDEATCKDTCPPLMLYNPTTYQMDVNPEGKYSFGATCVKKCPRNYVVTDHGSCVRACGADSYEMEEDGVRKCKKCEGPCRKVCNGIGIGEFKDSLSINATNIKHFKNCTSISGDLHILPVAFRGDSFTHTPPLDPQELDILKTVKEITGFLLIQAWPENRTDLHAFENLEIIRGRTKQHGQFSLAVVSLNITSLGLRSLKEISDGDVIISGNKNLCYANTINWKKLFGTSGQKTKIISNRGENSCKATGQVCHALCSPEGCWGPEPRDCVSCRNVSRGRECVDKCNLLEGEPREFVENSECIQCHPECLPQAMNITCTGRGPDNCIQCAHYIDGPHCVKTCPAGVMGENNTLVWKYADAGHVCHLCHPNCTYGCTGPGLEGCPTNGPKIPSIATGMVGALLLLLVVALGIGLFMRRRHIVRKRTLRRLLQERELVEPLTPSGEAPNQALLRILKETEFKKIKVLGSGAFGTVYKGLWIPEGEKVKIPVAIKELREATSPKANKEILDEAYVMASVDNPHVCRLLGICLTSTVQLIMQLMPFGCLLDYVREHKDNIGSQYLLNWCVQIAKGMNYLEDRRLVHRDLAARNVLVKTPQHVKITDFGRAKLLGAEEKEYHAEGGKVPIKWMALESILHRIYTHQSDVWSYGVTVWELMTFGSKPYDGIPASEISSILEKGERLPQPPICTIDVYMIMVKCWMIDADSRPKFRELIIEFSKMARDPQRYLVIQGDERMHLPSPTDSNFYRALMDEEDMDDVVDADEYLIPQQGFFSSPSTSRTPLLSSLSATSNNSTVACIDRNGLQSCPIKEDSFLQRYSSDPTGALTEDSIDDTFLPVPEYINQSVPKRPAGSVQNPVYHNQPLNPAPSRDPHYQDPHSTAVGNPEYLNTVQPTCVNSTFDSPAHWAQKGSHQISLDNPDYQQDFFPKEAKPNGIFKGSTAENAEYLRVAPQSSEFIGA
Epidermal growth factor receptor (Homo sapiens), P00533 [T790M], sequence (P00533 whole entry T790M): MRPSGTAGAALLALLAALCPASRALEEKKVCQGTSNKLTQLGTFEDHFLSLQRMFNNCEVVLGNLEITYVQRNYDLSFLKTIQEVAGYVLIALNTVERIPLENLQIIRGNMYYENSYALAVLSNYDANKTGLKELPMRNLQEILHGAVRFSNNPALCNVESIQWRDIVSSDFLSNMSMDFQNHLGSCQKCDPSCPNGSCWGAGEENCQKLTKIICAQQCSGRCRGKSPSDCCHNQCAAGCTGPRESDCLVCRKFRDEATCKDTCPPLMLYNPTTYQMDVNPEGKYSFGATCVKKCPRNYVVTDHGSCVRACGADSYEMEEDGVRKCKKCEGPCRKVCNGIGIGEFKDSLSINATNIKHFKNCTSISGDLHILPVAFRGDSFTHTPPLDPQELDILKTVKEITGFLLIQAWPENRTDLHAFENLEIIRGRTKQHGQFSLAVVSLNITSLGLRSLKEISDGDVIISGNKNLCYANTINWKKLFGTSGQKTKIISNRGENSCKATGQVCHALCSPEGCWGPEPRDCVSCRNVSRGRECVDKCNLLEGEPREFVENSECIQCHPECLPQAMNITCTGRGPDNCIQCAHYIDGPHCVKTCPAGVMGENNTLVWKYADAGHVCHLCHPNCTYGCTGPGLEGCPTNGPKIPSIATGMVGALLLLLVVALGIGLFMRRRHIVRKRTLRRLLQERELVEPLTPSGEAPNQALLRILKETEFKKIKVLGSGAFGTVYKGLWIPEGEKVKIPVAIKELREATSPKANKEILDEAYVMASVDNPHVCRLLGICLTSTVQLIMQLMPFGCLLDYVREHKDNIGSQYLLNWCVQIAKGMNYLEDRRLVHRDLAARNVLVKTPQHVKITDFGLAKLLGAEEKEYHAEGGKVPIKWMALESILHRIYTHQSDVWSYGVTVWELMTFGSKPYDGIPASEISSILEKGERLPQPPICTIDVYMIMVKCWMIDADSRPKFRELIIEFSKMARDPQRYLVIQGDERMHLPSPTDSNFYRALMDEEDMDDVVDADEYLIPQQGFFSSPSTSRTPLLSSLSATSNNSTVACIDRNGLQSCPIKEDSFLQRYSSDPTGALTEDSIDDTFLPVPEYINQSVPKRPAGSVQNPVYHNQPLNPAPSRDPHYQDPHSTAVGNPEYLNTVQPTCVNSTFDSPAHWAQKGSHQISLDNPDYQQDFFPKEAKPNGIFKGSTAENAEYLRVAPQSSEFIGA

Row | EC50 [1] [nM] | EC50 [3] [nM] | EC50 [4] [nM] | solubility [5] [µM] | microsomal CLint [6] [µL/min/mg] | SMILES | other results
1 | 1710 | – | – | – | – | C=CC(=O)NCCCn1c(-c2nc(-c3cnn(C4CCN(C)CC4)c3)cnc2N)nc2ccccc21 | IC50 [2]: 200 nM
2 | 550 | 120 | 3380 | – | – | C=CC(=O)Nc1ccc(-n2c(-c3nc(-c4cnn(C5CCN(C)CC5)c4)cnc3N)nc3ccccc32)cc1 | –
3 | > 20000 | 9130 | > 30000 | – | – | C=C(C)C(=O)Nc1cccc(-n2c(-c3nc(-c4cnn(C5CCN(C)CC5)c4)cnc3N)nc3ccccc32)c1 | –
4 | 390 | 250 | 10900 | – | – | C=CC(=O)N(C)c1cccc(-n2c(-c3nc(-c4cnn(C5CCN(C)CC5)c4)cnc3N)nc3ccccc32)c1 | –
5 | 24 | 22 | 5000 | < 10 | 298 | C=CC(=O)Nc1cccc(-n2c(-c3nc(-c4cnn(CCN5CCOCC5)c4)cnc3N)nc3ccccc32)c1 | –
6 | 14 | 9 | 760 | < 10 | 37 | C=CC(=O)Nc1cccc(-n2c(-c3nc(-c4cnn(C5CCN(C(C)C)CC5)c4)cnc3N)nc3ccccc32)c1 | –
7 | 9 | 16 | 1960 | < 10 | 197 | C=CC(=O)Nc1cccc(-n2c(-c3nc(-c4cnn(C5CCN(CC)CC5)c4)cnc3N)nc3ccccc32)c1 | –
8 | 22 | 23 | 3510 | < 10 | > 300 | C=CC(=O)Nc1cccc(-n2c(-c3nc(-c4cnn(C5CCN(C(C)=O)CC5)c4)cnc3N)nc3ccccc32)c1 | –
9 | 10 | 9 | 1070 | < 10 | 24 | C=CC(=O)Nc1cccc(-n2c(-c3nc(-c4cnn(C)c4)cnc3N)nc3ccccc32)c1 | –
10 | 24 | 18 | 3000 | < 10 | > 300 | C=CC(=O)Nc1cccc(-n2c(-c3nc(-c4cnn(C5CCN(C(=O)CO)CC5)c4)cnc3N)nc3ccccc32)c1 | –
11 | 14900 | – | – | – | – | C=CC(=O)NCCn1c(-c2nc(-c3cnn(C4CCN(C)CC4)c3)cnc2N)nc2ccccc21 | IC50 [2]: 2200 nM
12 | 73 | 43 | 4390 | < 10 | – | C=CC(=O)Nc1ccc(F)c(-n2c(-c3nc(-c4cnn(C5CCN(C)CC5)c4)cnc3N)nc3ccccc32)c1 | –
13 | 15 | 13 | 1140 | 18 (≈ 10.6 µg/mL) | 66 | C=CC(=O)Nc1cccc(-n2c(-c3nc(-c4cnn(C5CCN(C(=O)CN(C)C)CC5)c4)cnc3N)nc3ccccc32)c1 | –
14 | – | – | – | – | – | CCn1c(-c2nc(-c3cnn(C4CCN(C)CC4)c3)cnc2N)nc2ccccc21 | Ratio IC50 (Homo sapiens): 5; IC50 [2]: 50 nM; inhibition [7]: Active
15 | – | – | – | – | – | CN1CCC(n2cc(-c3cnc(N)c(-c4nc5ccccc5[nH]4)n3)cn2)CC1 | Ratio IC50 (Homo sapiens): 5; IC50 [2]: 290 nM; inhibition [7]: Active
16 | 18 | 10 | 4390 | 300 (≈ 156 µg/mL) | 169 | C=CC(=O)Nc1cccc(-n2c(-c3nc(-c4cnn(C5CCN(C)CC5)c4)cnc3N)nc3cnccc32)c1 | –
17 | 14 | 9 | 980 | < 10 | 120 | C=CC(=O)Nc1cccc(-n2c(-c3nc(-c4cnn(C5CCN(C)CC5)c4)cnc3N)nc3ccccc32)c1 | inhibition in vivo at 50 mg/kg/day (A-431): 21%; GI50 (NCI-H1975 [8]): 25 nM; selectivity ratio [9]: > 60; inhibition in vivo at 50 mg/kg/day (NCI-H1975 [10]): 117%; inhibition [11]: > 75%; GI50 [12]: 16 nM; Time (Mus musculus): 6 h; GI50 at 72 h [13]: 1700 nM; inhibition in vivo at 50 mg/kg/day [14]: 238%; IC50 [2]: < 1 nM; inhibition [15]: > 75%; inhibition [16]: > 75%
18 | 7 | 3 | 420 | 35 (≈ 18.7 µg/mL) | – | C=CC(=O)Nc1ccccc1Cn1c(-c2nc(-c3cnn(C4CCN(C)CC4)c3)cnc2N)nc2ccccc21 | Stability [17]: Unstable
19 | 12 | 8 | 2250 | < 10 | 54 | C=CC(=O)Nc1cccc(-n2c(-c3nc(-c4cnn(CCO)c4)cnc3N)nc3ccccc32)c1 | –
20 | 23 | 26 | 2060 | < 10 | – | C=CC(=O)Nc1cccc(-n2c(-c3nc(-c4cnn(C5CCN(C)CC5)c4)cnc3N)nc3ccccc32)c1F | –
21 | 150 | 100 | > 15000 | 540 (≈ 281 µg/mL) | 68 | C=CC(=O)Nc1cccc(-n2c(-c3nc(-c4cnn(C5CCN(C)CC5)c4)cnc3N)nc3ccncc32)c1 | –
22 | 1780 | 5060 | > 30000 | – | – | C=CC(=O)Nc1ccc(Cn2c(-c3nc(-c4cnn(C5CCN(C)CC5)c4)cnc3N)nc3ccccc32)cc1 | –
23 | 1340 | 370 | > 20000 | < 10 | – | C=CC(=O)Nc1cc(-n2c(-c3nc(-c4cnn(C5CCN(C)CC5)c4)cnc3N)nc3ccccc32)ccc1OC | –
24 | 360 | 280 | > 25000 | – | – | C=CC(=O)Nc1cccc(Cn2c(-c3nc(-c4cnn(C5CCN(C)CC5)c4)cnc3N)nc3ccccc32)c1 | –
25 | > 30000 | 8010 | > 30000 | – | – | CC(=O)Nc1cccc(-n2c(-c3nc(-c4cnn(C5CCN(C)CC5)c4)cnc3N)nc3ccccc32)c1 | –
26 | 15 | 15 | 2310 | 30 (≈ 16.5 µg/mL) | 60 | C=CC(=O)Nc1cccc(-n2c(-c3nc(-c4cnn(CCN5CCN(C)CC5)c4)cnc3N)nc3ccccc32)c1 | –
